In brackets after ≈: the same amount, converted by molar mass. Like-named read-outs stand apart in the source and are kept apart here. Where only a bound is given, the exact number is not on record here.

One series relates to MDR-expressing sublines. As to conditions: cited from earlier work; for Resistance of MDR-expressing sublines relative to parental wild-type cells: comparison studies; for Change in sensitivity typically described for classic MDR substrates: same experiments.
For series [1] the following is noted: human, in vivo; cited from earlier work.
Series [2] is described as follows: Limit of solubility in cell culture medium. It counts as physicochemical. As to the method: (§1) The 1050 values exceeded the solubility in medium for each compound—the limit of solubility in cell culture medium for the compounds were as follows: 2 micromolar for BNP1350 and SN38, and 20 micromolar for Topotecan. Cells were treated for periods of 2.5 hours or 6 hours and, in each case, the […] values were not reached. Longer treatments were not performed.

The subject of a further series is COV644 Cell Line. The series is described as follows: SRB cytotoxicity assay, COV644. In kind it is cell-based, human. The method, then:
(§2) In vitro studies were conducted in human mucinous ovarian cancer cell lines including JHOM2B, OMC3, and COV644. In one series of experiments, the dose response curves for BNP1350 (also known as Karenitecin), SN-38 (Irinotecan), and Topotecan were obtained and IC50 values were determined. In a second series of experiments, the effect of BNP7787 (2,2′-dithio-bis-ethane sulfonate; Tavocept) on BNP1350-induced cytotoxicity at selected BNP1350 concentrations was examined.
(§3) The JHOM2B and OMC3 cell lines were purchased from Riken Cell Bank (Japan). The COV644 cell line was purchased from SigmaAldrich. Cells were maintained as monolayered cultures in T-75 flasks and then seeded to microtiter plate wells for experiments. Population doubling-times for these three cell lines were long (i.e., exceeding 40 hours, and for some of the cell lines approaching 96 hours); therefore, the Applicants conducted initial pilot experiments and determined optimal seeding density to obtain A570 values in untreated controls that would fall within the linear range of the SRB assay after seven (7) total days of cell growth. JHOM2B cells were cultured in DMEM:F12 (1:1)+0.1 mM non-essential amino acids (NEAA)+10% FBS and were seeded at 6,000 cells per well. OMC3 cells were cultured in HamF12+10% FBS and were seeded at 8,000 cells per well. COV644 cells were cultured in DMEM+2 mM glutamine+10% FBS and were seeded at 6,000 cells per well.
(§4) The cells were manipulated in a Microzone laminar flow hood traditionally used for maintaining aseptic environments around automated instrumentation such as microplate robots, and the like. Cells were grown and maintained at 37° C. in a humidified atmosphere containing 5% CO2 in a water jacketed cell culture incubator (Forma Scientific). Cells were counted using a ViCell counter (Beckman-Coulter). An automated plate washer/stacker (ELx405/BioStak from BioTek Instruments) and a microplate reader (SpectraMax Plus from Molecular Devices) were used for conducting the SRB assay and determining A570 values for wells in the plates and the percentage of control values. Prior to SRB assays, cell viability was monitored by evaluation of microtiter plate wells. Dead cells detach and float while living cells remain attached to the bottom of the cell well.
(§5) SN-38 (Irinotecan; Sigma H0165, lot MKBQ4981) and Topotecan (Sigma T2705, lot 052M4728V) were purchased from SigmaAldrich. BNP1350 (lot KN-C192-135) and BNP7787 (lot 205001) were synthesized at BioNumerik Pharmaceuticals, Inc. (San Antonio, Tex.). BNP1350, SN38, and Topotecan were prepared as 2.5, 2.5, and 25 mM stocks in DMSO (ATCC, cell culture grade).
(§6) The sulforhodamine B (SRB) cytotoxicity assay was used to assess cell survival. Briefly, after the medium was decanted from individual plate wells, trichloroacetic acid (100 μL of 10.0 percent solution) was added to each well, and the plates were incubated at 4° C. for 1 hour. The plates were washed five times with water using an automated microplate washer (Model ELx405, Bio-Tek Instruments), SRB solution (100 μL of 0.4% SRB dissolved in 1.0 percent acetic acid) was added, and plates remained at room temperature for 15 minutes. The plates were then washed five times using acetic acid (1.0 percent), air dried, and bound dye was solubilized in Tris base (150 μL, 10 mM). Plates were agitated (gently) for 5 minutes and the absorbance values of the SRB dye-protein adduct at 570 nanometers (A570) were determined using an automated microtiter plate reader (SpectraMax Plus, Molecular Devices). IC50 values were extrapolated from dose response curves of the data using OriginLab Software.
as §1

In a further series the test system is OMC3 Cell Line. The series is described as follows: SRB cytotoxicity assay, OMC3. It counts as cell-based, human. As to the method:
as §2, §3, §4, §5, §6

In the next series the test system is JHOM2B Cell Line. The series is described as follows: SRB cytotoxicity assay, JHOM2B. In kind it is cell-based, human. The method, then: as §2, §3, §4, §5, §6
Series [3] deals with stage III/IV advanced epithelial ovarian cancer resistant or refractory to platinum- and taxane-based regimens. The method, then: Such Phase III clinical trial is sometimes referred to herein as the “Karenitecin Phase III Trial”.
The Primary Endpoint of the disclosed Karenitecin Phase III Trial was Progression Free Survival (“PFS”); which was defined as the time period from the date of randomization to the date of first radiographically-documented Progressive Disease (“PD”) or date of death due to any cause, taking the event date that occurs first. The date of PD was determined by radiographical objective disease (RECIST) measurement. The Secondary Endpoints of the disclosed Karenitecin Phase III Trial included: (i) Overall Survival (hereinafter “OS”), defined as the time from the date of randomization to the date of death due to any cause; (ii) Incidence of anemia, defined as the proportion of subjects who experience ≧grade 3 anemia based on National Cancer Institute Common Terminology Criteria for Adverse Events (NCI-CTCAE) criteria at any time post-baseline after receiving study treatment; (iii) Incidence of neutropenia (including febrile neutropenia), defined as the proportion of subjects who experience ≧grade 3 neutropenia based on NCI-CTCAE criteria at any time post-baseline after receiving study treatment; and (iv) Incidence of thrombocytopenia, defined as the proportion of subjects who experience ≧grade 3 thrombocytopenia based on NCI-CTCAE criteria at any time post-baseline after receiving study treatment.
Approximately 80 study centers participated in this clinical study. The primary endpoint was Progression Free Survival (PFS); defined as the time period from the date of randomization to the date of first radiographically documented progressive disease or disease progression (“PD”) or date of death due to any cause, taking the event date that occurs first.
The primary endpoint was Progression Free Survival (PFS); defined as the time period from the date of randomization to the date of first radiographically documented progressive disease (PD) or date of death due to any cause, taking the event date that occurs first. The date of PD was determined by radiographically objective disease (RECIST) measurement.
• Overall Survival (OS), defined as the time from the date of randomization to the date of death due to any cause. • Incidence of anemia, defined as the proportion of subjects who experience ≧grade 3 anemia based on National Cancer Institute Common Terminology Criteria for Adverse Events (NCI-CTCAE) criteria at any time post-baseline after receiving study treatment. • Incidence of neutropenia (including febrile neutropenia), defined as the proportion of subjects who experience ≧grade 3 neutropenia based on NCI-CTCAE criteria at any time post-baseline after receiving study treatment. • Incidence of thrombocytopenia, defined as the proportion of subjects who experience ≧grade 3 thrombocytopenia based on NCI-CTCAE criteria at any time post-baseline after receiving study treatment.
During this period, subjects received either Karenitecin (1.0 mg/m^2/day administered as a 60-minute intravenous infusion) or Topotecan (1.5 mg/m^2/day administered as a 30-minute intravenous infusion) daily for 5 consecutive days, every 21 days (one treatment cycle=21 days).

Series [4] concerns resistant subline containing less than 4% of the topoisomerase I activity. As to conditions: subline with less than 4% of topoisomerase I activity; cited from earlier work.
For series [5], the system named is platinum-refractory epithelial ovarian cancer. The conditions noted are these: cited from earlier work.
Setting [6] is: 2 hour drug exposure, read-out: IC50, Test 1 (2 replicate plates).
Where [7] appears, read: 2 hour drug exposure, read-out: IC50, Test 2 (3 replicate plates).
[8] abbreviates: Homo sapiens, read-out: IC50 values.
Setting [9] is: Homo sapiens, 2 hour drug exposure, average of Test 1 and Test 2, read-out: IC50, Average.
Where [10] appears, read: Homo sapiens, 2 hour drug exposure, read-out: IC50, Test 1 (2 replicate plates).
[11] abbreviates: Homo sapiens, 2 hour drug exposure, read-out: IC50, Test 2 (3 replicate plates).
[12] abbreviates: Mucinous adenocarcinoma subtype.

With `CC[C@@]1(O)C(=O)OCc2c1cc1n(c2=O)Cc2cc3c(N)cccc3nc2-1` [9-aminocamptothecin, 9-amino-camptothecin], the “Resistance of MDR-expressing sublines relative to parental wild-type cells” value with MDR-expressing sublines was “two-fold more resistant”.

Take `CC[C@@]1(O)C(=O)OCc2c1cc1n(c2=O)Cc2cc3cc4c(cc3nc2-1)OCO4` [10,11-methylenedioxycamptothecin]: the “Resistance of MDR-expressing sublines relative to parental wild-type cells” value in the series with MDR-expressing sublines is reported as “No increase in resistance”.

Turning to `Nc1ccn([C@@H]2O[C@H](CO)[C@@H](O)C2(F)F)c(=O)n1` [Gemcitabine], the Subjects with neutropenia entry in series [1] is “up to 90%”.

On to `CCc1c2c(nc3ccc(O)cc13)-c1cc3c(c(=O)n1C2)COC(=O)[C@]3(O)CC` [SN38], for which, in [2], the “Limit of solubility in cell culture medium” value came to 2 µM. Moreover, the IC50 with COV644 Cell Line (2, 5, and 6 hour drug exposures, did not reach 50% of Control, read-out: IC50, Test 1 (2 replicate plates)) is above 2 µM; in the series with COV644 Cell Line (2, 5, and 6 hour drug exposures, did not reach 50% of Control, read-out: IC50, Test 2 (2 to 3 replicate plates)), above 2 µM; in the series on COV644 Cell Line (2, 5, and 6 hour drug exposures, read-out: IC50, Average), above 2 µM; with OMC3 Cell Line (setting [6]), 0.55 ± 0.06 µM; in the series on OMC3 Cell Line (setting [7]) it was 0.58 ± 0.127 µM; in the series with OMC3 Cell Line (read-out: IC50 values), 0.565 µM. In addition, the IC50 in the series on JHOM2B Cell Line (2 hour drug exposure, average of Test 1 and Test 2, read-out: IC50, Average) is 0.666 µM; with JHOM2B Cell Line (setting [6]), 0.61 ± 0.13 µM; in the series on JHOM2B Cell Line (setting [7]), 0.723 ± 0.028 µM; with JHOM2B Cell Line (read-out: IC50 values), 0.667 µM.

Regarding `CC[C@@]1(O)C(=O)OCc2c1cc1n(c2=O)Cc2cc3c(CN(C)C)c(O)ccc3nc2-1` [Topotecan], the concentration in solution in series [2] (aqueous buffer) (solubility) came to 20 µM (≈ 8.43 µg/mL). In addition, the IC50 in the series with COV644 Cell Line (Homo sapiens, 2, 5, and 6 hour drug exposures, did not reach 50% of Control, read-out: IC50, Test 1 (2 replicate plates)) was above 20 µM; with COV644 Cell Line (Homo sapiens, 2, 5, and 6 hour drug exposures, did not reach 50% of Control, read-out: IC50, Test 2 (2 to 3 replicate plates)) it was above 20 µM; in the series on COV644 Cell Line (Homo sapiens, 2, 5, and 6 hour drug exposures, read-out: IC50, Average), above 20 µM; in the series with COV644 Cell Line (setting [8]) it was above 20 µM; in the series on OMC3 Cell Line (setting [9]), 3.94 µM; in the series with OMC3 Cell Line (setting [10]), 3.12 ± 0.18 µM. The IC50 stood at 4.76 ± 0.25 µM in the series on OMC3 Cell Line (setting [11]); 3.94 µM in the series on OMC3 Cell Line (setting [8]); 5.17 µM with JHOM2B Cell Line (setting [9]); 4.75 ± 0.25 µM with JHOM2B Cell Line (setting [10]); 5.59 ± 0.28 µM with JHOM2B Cell Line (setting [11]); 5.17 µM in the series on JHOM2B Cell Line (setting [8]). Further, the “Resistance of MDR-expressing sublines relative to parental wild-type cells” value in the series on MDR-expressing sublines is listed as “nine-fold more resistant”. Further, the “Median PFS” value in [3] (setting [12]) came out at 9.1 weeks; in [3] (overall trial population, IRC-determined) it was 17.8 weeks; in series [3] (refractory or resistant and/or mucinous subpopulation), 18.7 weeks. Further, the “Overall survival (OS), third quartile” value in series [3] (setting [12]) was determined as 19.4 months.

For `CC[C@@]1(O)C(=O)OCc2c1cc1n(c2=O)Cc2cc3ccccc3nc2-1` [camptothecin], the “Decrease in sensitivity of resistant subline compared with wild-type parental cells” value in series [4] is 1000 fold. Further, the “Resistance of MDR-expressing sublines relative to parental wild-type cells” value with MDR-expressing sublines was “No increase in resistance”.

As for `N.N.O=C([O-])C1(C(=O)[O-])CCC1.[Pt+2]` [carboplatin], the Stable disease in [5] (6 subjects) is on record as 18%. The “Response rate, subgroup with platinum-free interval of 12 months” value in series [5] (26 subjects (7/26)) was 27%. For the same compound, the “Overall response rate to platinum reinduction” value in series [5] (33 subjects, single-agent carboplatin after taxane failure) is on record as 21%. In [5] (in vivo), the “Median duration of response” value is recorded as at least 7 months.

For the compound `COc1cccc2c1C(=O)c1c(O)c3c(c(O)c1C2=O)C[C@@](O)(C(=O)CO)C[C@@H]3O[C@H]1C[C@H](N)[C@H](O)[C@H](C)O1` [doxorubicin], the “Change in sensitivity typically described for classic MDR substrates” value with MDR-expressing sublines is 200 fold.

Regarding `COc1cc([C@@H]2c3cc4c(cc3[C@@H](O[C@@H]3O[C@@H]5CO[C@@H](C)O[C@H]5[C@H](O)[C@H]3O)[C@H]3COC(=O)[C@H]23)OCO4)cc(OC)c1O` [etoposide], the “Change in sensitivity typically described for classic MDR substrates” value in the series on MDR-expressing sublines is 200 fold.

These data come from US20160038519A1, “ADMINISTRATION OF KARENITECIN FOR THE TREATMENT OF ADVANCED OVARIAN CANCER, INCLUDING CHEMOTHERAPY-RESISTANT AND/OR THE MUCINOUS ADENOCARCINOMA SUB-TYPES” (BioNumerik Pharmaceuticals, Inc., priority 2014, published 2016).
